Test results reported in patent publication US8067456B2 (AEterna Zentaris GmbH, priority 2004, dated 2011).

Experiments:
LHRH receptor = target: T1, LHRH receptor (Rattus norvegicus, UniProt P30969); experiment: LHRH receptor-ligand binding assay (membrane preparations from rat pituitary cells); settings: competition with 0.05 nM [125I][D-Trp6]-LHRH, 90 min, 4° C., rat pituitary membranes
T1 construct: rat pituitary cells which naturally strongly express the LHRH receptor; from tissue; host or cells: rat pituitary cells (membrane preparation)
T1 sequence (P30969 1-327): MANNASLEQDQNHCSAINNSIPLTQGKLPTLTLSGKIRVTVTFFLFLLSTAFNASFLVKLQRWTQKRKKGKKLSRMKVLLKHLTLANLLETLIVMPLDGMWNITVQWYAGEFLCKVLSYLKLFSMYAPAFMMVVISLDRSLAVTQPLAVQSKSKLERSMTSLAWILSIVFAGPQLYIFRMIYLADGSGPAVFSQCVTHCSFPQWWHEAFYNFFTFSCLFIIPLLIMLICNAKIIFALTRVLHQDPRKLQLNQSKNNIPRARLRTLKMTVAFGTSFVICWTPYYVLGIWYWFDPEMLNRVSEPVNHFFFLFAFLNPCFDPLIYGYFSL
Method: Heterologous competition experiments were carried out using membrane preparations from rat pituitary cells which naturally strongly express the LHRH receptor. The ligand used in this case was [^125I][D-Trp^6]-LHRH in a concentration of 0.05 nM. Unlabeled [D-Trp^6]-LHRH was used in a concentration of 1 μM, or the test substance was used in the desired concentration, for competition. After an incubation time of 90 minutes at 4° C., the bound ligand was measured by scintillation (Halmos et al., Proc. Natl. Acad. Sci. USA, 1996, 93, 2398).
The result obtained was the percentage proportion of bound ligand in the presence of the competitor related to the specifically bound proportion of the control (see result for selected compounds in Table 3). EC50 values were calculated by nonlinear regression analysis of the competition plots.

castrated rats = experiment: LH concentration suppression in the plasma of castrated rats; format: in vivo, rat; settings: 100 mg/kg oral in Solutol HS15/1,2-propane-diol (3:1)
Method: The LH concentration in the plasma of castrated rats was measured using the rat luteinizing hormone (rLH) enzyme immunoassay (EIA) system ELISA (RPN 2562) from Amersham Pharmacia Biotech or of LH RIA-AH R002 rats; from Biocode-Hycel, Liege, Belgium. All other chemicals used were from commercial sources in the highest purity available.
10 days before the start of the test, male Sprague Dawley rats (Harlan Winkelmann, Germany) weighing 190-220 g were anesthetized with ether and castrated and provided with a silicone catheter for permanent blood sampling.
At the start of the test, before administration of the substance, blood samples were taken and the LH level determined. The substance was then administered orally in the desired concentration. The number of animals used in each group was 8. At the stated times, further blood samples were taken. The blood was collected in heparinized sample tubes on ice, and the plasma was obtained by centrifugation at 3000 g for 10 minutes. The plasma samples were stored at −20° C. until the LH concentration was measured by ELISA or RIA. The LH concentration was determined by an ELISA or RIA in duplicate determination in accordance with the manufacturer's (Amersham Pharmacia Biotech; Biocode-Hycel) instructions.
All the other data points for each individual animal were calculated as relative concentration compared with the LH concentration before treatment.

[1] = test system: LHRH-stimulated LH secretion from rat pituitary cells; experiment: Inhibition of LHRH-induced LH secretion from rat pituitary cells in vitro; format: cell-based; settings: LHRH 10 nM, 3 hours
Method: The LH concentration in cell culture supernatants was measured using the rat luteinizing hormone (rLH) enzyme immunoassay (EIA) system ELISA (RPN 2562) from Amersham Pharmacia Biotech. All other chemicals used were from commercial sources in the highest purity available.
Juvenile male Wistar rats (Harlan Winkelmann, Germany) were sacrificed by decapitation, and the pituitaries were removed and taken up in Hanks' buffer (HBSS) with 0.3% BSA and 10 mM HEPES (pH 7.4). Pituitaries from 20 rats were required to carry out one experiment. The cells of the anterior lobe of the pituitary were separated from the remaining tissue by incubation in Hanks' buffer with 10 mM HEPES (pH 7.4), 0.3% BSA, 1 mg/ml hyaluronidase (type VIII), 1 mg/ml soybean trypsin inhibitor, 10 μg/ml DNAsel and 1 mg/ml papain at 37° C. for 30 minutes A sterile Pasteur pipette was used to disperse the cells, and they were subsequently pelleted by centrifugation. The cells were seeded in a density of 2.5×10^5 cells/well of a collagen-coated 48-well plate (Becton Dickinson) in DMEM medium (Invitrogen Life Technologies, Germany) with 10% fetal calf serum (FCS; Invitrogen Life Technologies, Germany), 10 mill nonessential amino acids and 10 mill Pen/Strep (penicillin/streptomycin).
The medium was changed after incubation at 37° C., 5% CO2 and 95% humidity for 48 h. The medium was replaced by LHRH-containing (10 nM) medium or medium with LHRH (10 nM) and test substance in the concentration indicated (table). After a further incubation for 3 hours, the cell supernatant was harvested and frozen at −20° C. The LH content was determined by means of ELISA in triplicate determination in accordance with the manufacturer's (Amersham Pharmacia Biotech) instructions.
In the following table, “% Inhibition” describes the quotient of LHRH-stimulated LH secretion with (“LH (ng/ml)” and without the addition of the test substance. The values originate from different, independent experiments.

`CCC(C)[C@H](NC(=O)OCc1ccccc1)C(=O)N[C@]1(C(=O)N[C@H](C(N)=S)C(C)CC)CCc2[nH]c3c(Cl)cc(Cl)cc3c2C1` (stereo partly drawn) [Compound 7, benzyl {(S)-1-[(R)-6,8-dichloro-3-((S)-2-methyl-1-thiocarbamoylbutylcarbamoyl)-2,3,4,9-tetrahydro-1H-carbazol-3-ylcarbamoyl]-2-methylbutyl}carbamate] was tested, and the EC50 (LHRH receptor) was 6.9 nM, the “Relative LH concentration (%) (averages ± SEM compared with the concentration before treatment)” value (castrated rats; time 0 h) was 91.8 ± 19.1% and the “Relative LH concentration (%) (averages ± SEM compared with the concentration before treatment)” value (castrated rats; time +4 h) was 19.6 ± 8.9%. For the same molecule, the “Relative LH concentration (%) (averages ± SEM compared with the concentration before treatment)” value (castrated rats; time +6 h) was 10.1 ± 3.2%, the “Relative LH concentration (%) (averages ± SEM compared with the concentration before treatment)” value (castrated rats; time +24 h) was 65.1 ± 13.9% and the “Relative LH concentration (%) (averages ± SEM compared with the concentration before treatment)” value (castrated rats; time +48 h) was 110.6 ± 33.0%. For the same molecule, the “Relative LH concentration (%) (averages ± SEM compared with the concentration before treatment)” value (castrated rats; time +72 h) was 268.4 ± 93.0%, the “Relative LH concentration (%) (averages ± SEM compared with the concentration before treatment)” value (castrated rats; time −2 h (before treatment)) was 110.8 ± 12.2% and the “Relative LH concentration (%) (averages ± SEM compared with the concentration before treatment)” value (castrated rats; time −4 h (before treatment)) was 97.4 ± 15.3%. The inhibition at 0.033 µM ([1]; Rattus norvegicus, test substance 3.3 × 10^−8 M, read-out: % Inhibition) was 83%, the inhibition at 0.0033 µM ([1]; Rattus norvegicus, test substance 3.3 × 10^−9 M) was 43% and the “LH (ng/ml) ± SD” value ([1]; test substance 3.3 × 10^−8 M) was 79.9 ± 15.0 ng/mL. The “LH (ng/ml) ± SD” value ([1]; test substance 3.3 × 10^−9 M) was 194.0 ± 13.2 ng/mL.
